Test systems include SF-295; UO-31; NCI-H23; HOP-62; OVCAR-4; Hs-578T; HCT-15; MDA-MB-435; HOP-92; CAKI-1; U-251; OVCAR-5; UACC-257; NCI-H522; HL-60; T47D; SK-MEL-28; TK-10; IGROV-1; HCC 2998.
Assay in all cases: inhibition of tumour cell growth, NCI panel, 48 h

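Tested at 5 concentrations; 48 h exposure; 96-well plates; endpoints linearly interpolated, else capped at highest concentration. GI50: concentration for 50% inhibition of growth.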 Active and inactive are the calls of the source. Cut-off read from the data, not from the text of the source: active = GI50 up to about 1.1 µM and inactive = higher.

For `C/C(=N/S(=O)(=O)c1ccc(Cl)c(Cl)c1)OCC(C)(C)C`, the GI50 in the assay on SF-295, with UO-31, with NCI-H23, with HOP-62, with OVCAR-4 and with Hs-578T was > 100 µM (inactive) each time. In addition, the GI50 in the assay on HCT-15 is more than 100 µM; with MDA-MB-435, > 100 µM (inactive); in the assay on HOP-92 it was > 100 µM (inactive); in the assay on CAKI-1, > 100 µM (inactive); in the assay with U-251 it was > 100 µM (inactive); with OVCAR-5, > 100 µM (inactive). The GI50 was > 100 µM (inactive) with UACC-257; > 100 µM (inactive) with NCI-H522; 6.98 µM (inactive) with HL-60; > 100 µM (inactive) in the assay with T47D; > 100 µM (inactive) in the assay on SK-MEL-28; > 100 µM (inactive) with TK-10. Also, the GI50 in the assay on IGROV-1 is > 100 µM (inactive).

As for `CCOC(=O)c1cc(-c2ccc([N+](=O)[O-])cc2)c([N+](=O)[O-])[nH]1`, the GI50 with SF-295 is 2.1 µM (inactive); in the assay with UO-31 it was 2.42 µM (inactive); in the assay on NCI-H23 it was 2.84 µM (inactive); in the assay on OVCAR-4, 4.23 µM (inactive); in the assay with Hs-578T it was 3.34 µM (inactive); in the assay with HCT-15, 2.9 µM. Besides, the GI50 with MDA-MB-435 is 2.75 µM (inactive); with HOP-92 it was 1.22 µM (inactive); in the assay with U-251 it was 3.46 µM (inactive); in the assay with OVCAR-5 it was 5.47 µM (inactive); with UACC-257 it was 1.6 µM (inactive); in the assay on NCI-H522, 3.33 µM (inactive). Moreover, the GI50 in the assay with T47D was 2.33 µM (inactive); in the assay with HCC 2998 it was 4.38 µM (inactive); with TK-10, 4.22 µM (inactive); with IGROV-1 it was 5.26 µM (inactive).

For the compound `CCOC(=O)CCC(NC(=O)c1ccc(Nc2nc3ccccc3nc2-c2cccs2)cc1)C(=O)OCC` (configuration not stated), the GI50 with SF-295 is 19.4 µM (inactive); with UO-31, 30.9 µM (inactive); in the assay on NCI-H23, 32.3 µM (inactive); in the assay with HOP-62 it was > 100 µM (inactive); in the assay on OVCAR-4 it was 23.9 µM (inactive); with Hs-578T, 23 µM (inactive). The GI50 is 21.9 µM with HCT-15; 30.2 µM (inactive) in the assay on MDA-MB-435; 29.8 µM (inactive) in the assay on HOP-92; 29.8 µM (inactive) in the assay with CAKI-1; 27.4 µM (inactive) in the assay with U-251; > 100 µM (inactive) with OVCAR-5. Besides, the GI50 in the assay with UACC-257 was 29.2 µM (inactive); in the assay with HL-60, 5.21 µM (inactive); in the assay with T47D it was 12 µM (inactive); with SK-MEL-28, 26.3 µM (inactive); in the assay on HCC 2998, 33.9 µM (inactive); with TK-10 it was 21.2 µM (inactive). For the same compound, the GI50 with IGROV-1 was 28 µM (inactive).

As to `COc1c(-c2nc3ccc(N4CCN(C)CC4)nc3[nH]2)cc(OC)c2[nH]c(COC(C)=O)nc12`, the GI50 is 34.4 µM (inactive) in the assay on SF-295; 30.7 µM (inactive) with UO-31; 32.2 µM (inactive) with NCI-H23; 25 µM (inactive) with HOP-62; 32.4 µM (inactive) with OVCAR-4; > 100 µM (inactive) in the assay on Hs-578T. Besides, the GI50 in the assay with HCT-15 was 46 µM; in the assay on MDA-MB-435 it was 26.5 µM (inactive); with HOP-92, > 100 µM (inactive); with CAKI-1, > 100 µM (inactive); in the assay on U-251, 13.8 µM (inactive); with OVCAR-5, 55.7 µM (inactive). Further, the GI50 in the assay on UACC-257 is 24.8 µM (inactive); in the assay on NCI-H522 it was 37.1 µM (inactive); in the assay with T47D it was 22.5 µM (inactive); in the assay with SK-MEL-28, 49.1 µM (inactive); in the assay on HCC 2998, 15.2 µM (inactive); with TK-10 it was 38.5 µM (inactive). Moreover, the GI50 in the assay with IGROV-1 was 65.9 µM (inactive).

Take `Cc1cnccc1/N=N/c1ccc(N(C)C)cc1`: the GI50 is 21.4 µM (inactive) with SF-295; 18.1 µM (inactive) with UO-31; 24.4 µM (inactive) in the assay on NCI-H23; 56.5 µM (inactive) with HOP-62; 16.9 µM (inactive) in the assay on OVCAR-4; 29.9 µM (inactive) with Hs-578T. Further, the GI50 was 15.1 µM with HCT-15; 7.6 µM (inactive) in the assay with MDA-MB-435; 9.38 µM (inactive) with HOP-92; 25.9 µM (inactive) in the assay on CAKI-1; 21.3 µM (inactive) in the assay with U-251; 28 µM (inactive) with OVCAR-5. The GI50 was 22.3 µM (inactive) in the assay with UACC-257; 47.5 µM (inactive) with HL-60; 48.6 µM (inactive) in the assay on T47D; 22.3 µM (inactive) with SK-MEL-28; 13.5 µM (inactive) with HCC 2998; 17.2 µM (inactive) in the assay with TK-10. Also, in the assay on IGROV-1, the GI50 was 7.8 µM (inactive).

For the compound `CN1C(=O)C23CCCCC2CC1(c1ccccc1)S3` (configuration not stated), the GI50 was 65.3 µM (inactive) with SF-295; 63 µM (inactive) with UO-31; 66.8 µM (inactive) in the assay on NCI-H23; > 100 µM (inactive) with HOP-62; 34.2 µM (inactive) in the assay with OVCAR-4; 99.1 µM (inactive) in the assay on Hs-578T. The GI50 with HCT-15 is 80 µM; in the assay with MDA-MB-435 it was > 100 µM (inactive); in the assay on HOP-92, 60.7 µM (inactive); in the assay on CAKI-1, 68.2 µM (inactive); in the assay on U-251 it was 77.4 µM (inactive); in the assay with OVCAR-5, > 100 µM (inactive). For the same compound, the GI50 in the assay on UACC-257 is 18.3 µM (inactive); in the assay on NCI-H522 it was 76.2 µM (inactive); with HL-60 it was 35.7 µM (inactive); in the assay with T47D, 42.6 µM (inactive); in the assay on SK-MEL-28 it was > 100 µM (inactive); with TK-10, 41.2 µM (inactive). Besides, the GI50 in the assay on IGROV-1 is > 100 µM (inactive).

As for `CC(=O)Oc1ccc2c(c1)oc1c3ccc(OC(C)=O)cc3n(C)c(=O)c21`, the GI50 in the assay with SF-295 is 36.7 µM (inactive); in the assay with UO-31 it was 50.1 µM (inactive); in the assay with NCI-H23, 46.3 µM (inactive); with HOP-62 it was 34.9 µM (inactive); in the assay with Hs-578T it was 4.48 µM (inactive); with HCT-15 it was 36.5 µM. In addition, the GI50 with MDA-MB-435 was 37.8 µM (inactive); in the assay on HOP-92, 28.7 µM (inactive); in the assay with U-251, 55 µM (inactive); with OVCAR-5, 51.9 µM (inactive); with UACC-257, 21.9 µM (inactive); in the assay with T47D, 34.8 µM (inactive). Moreover, the GI50 with SK-MEL-28 is 16.3 µM (inactive); in the assay on HCC 2998, 17.2 µM (inactive); in the assay on TK-10, 70.8 µM (inactive); in the assay with IGROV-1, 29.9 µM (inactive).

Turning to `CCOc1cc(-c2nc3ccccn3c2/N=C/c2cc([N+](=O)[O-])cc([N+](=O)[O-])c2O)ccc1O`, the GI50 with SF-295, in the assay with UO-31, in the assay with NCI-H23, with HOP-62, with OVCAR-4 and with Hs-578T was > 100 µM (inactive) throughout. Also, the GI50 in the assay with HCT-15 is more than 100 µM; in the assay with MDA-MB-435 it was > 100 µM (inactive); in the assay on HOP-92 it was > 100 µM (inactive); with CAKI-1, > 100 µM (inactive); in the assay with U-251 it was > 100 µM (inactive); with OVCAR-5, > 100 µM (inactive). For the same compound, the GI50 in the assay on UACC-257, in the assay with NCI-H522, in the assay with HL-60, in the assay with T47D, in the assay on SK-MEL-28 and with TK-10 was > 100 µM (inactive) throughout. Besides, the GI50 in the assay with IGROV-1 is > 100 µM (inactive).

Turning to `O=C(O)C1C2C=CC(O2)C1C(=O)NCc1ccccn1` (configuration not stated), the GI50 in the assay on SF-295, in the assay on UO-31, with NCI-H23, in the assay with HOP-62, in the assay on OVCAR-4 and in the assay on Hs-578T was > 100 µM (inactive) in each case. For the same compound, the GI50 with HCT-15 is more than 100 µM; in the assay on MDA-MB-435, > 100 µM (inactive); in the assay on HOP-92, > 100 µM (inactive); with CAKI-1 it was > 100 µM (inactive); with U-251 it was > 100 µM (inactive); with OVCAR-5, > 100 µM (inactive). The GI50 with UACC-257, in the assay with NCI-H522, in the assay with HL-60, in the assay with T47D, with SK-MEL-28 and in the assay on TK-10 was > 100 µM (inactive) each time. Besides, the GI50 with IGROV-1 was > 100 µM (inactive).

Take `CCCCCC(=O)OCC1(CO)C/C(=C/CC(C(C)C)C(C)C)C(=O)O1` (configuration not stated): the GI50 is 51.1 µM (inactive) in the assay with SF-295; 17.2 µM (inactive) in the assay on UO-31; > 75 µM (inactive) in the assay on NCI-H23; 38.7 µM (inactive) in the assay on HOP-62; 53.2 µM (inactive) with OVCAR-4; 33.3 µM (inactive) in the assay with Hs-578T. Besides, the GI50 is 73.1 µM in the assay with HCT-15; 21.8 µM (inactive) in the assay with MDA-MB-435; 27 µM (inactive) in the assay with HOP-92; 19.9 µM (inactive) with CAKI-1; 44.4 µM (inactive) in the assay with U-251; > 75 µM (inactive) in the assay with OVCAR-5. Further, the GI50 was > 75 µM (inactive) in the assay on UACC-257; 13.7 µM (inactive) in the assay on NCI-H522; 52.6 µM (inactive) in the assay on T47D; > 75 µM (inactive) in the assay with SK-MEL-28; 59.7 µM (inactive) in the assay with HCC 2998; > 75 µM (inactive) in the assay on TK-10. The GI50 in the assay with IGROV-1 is 17.8 µM (inactive).

On to `C=C1C(=O)O[C@H]2[C@H]1CC(=O)/C(C)=C/CC[C@@]1(C)O[C@@H]21`, for which the GI50 is 16.2 µM (inactive) in the assay with SF-295; 0.879 µM (active) with UO-31; 1.67 µM (inactive) in the assay with NCI-H23; 8.36 µM (inactive) with HOP-62; 2.93 µM (inactive) in the assay on OVCAR-4; 2.4 µM (inactive) with Hs-578T. Also, the GI50 was 0.515 µM with HCT-15; 1.53 µM (inactive) with MDA-MB-435; 0.74 µM (active) with HOP-92; 0.53 µM (active) with CAKI-1; 5 µM (inactive) in the assay on U-251; 2.15 µM (inactive) in the assay with OVCAR-5. Besides, the GI50 in the assay on NCI-H522 was 0.256 µM (active); in the assay on T47D, 1.12 µM (active); with SK-MEL-28, 0.603 µM (active); with HCC 2998 it was 2.4 µM (inactive); in the assay on TK-10 it was 1.24 µM (inactive); in the assay on IGROV-1, 2.04 µM (inactive).

(Values after ChEMBL document CHEMBL1201862, “PubChem BioAssay data set” (2004).)
